Assay results taken from patent US9155722B2, “Reconstitutable reverse thermal gelling polymers” (PROTHERICS SALT LAKE CITY, INC., priority 2009, dated 2015).

Experiments:
[1] = Stability of paclitaxel in copolymer solution or gel; assay type: physicochemical
[2] = cited from earlier work
physchem = experiment: physchem
Description: For solubilization studies, the calculated amount of Paclitaxel was add to the block polymers aqueous solution (prepared according to Example 5) and stirred for 10-20 minute at room temperature or 4° C.

paclitaxel intact ([1]; 23% by weight aqueous triblock copolymer solutions or gels, after 30 days in storage (2 to 8° C. and 37° C.)): > 90% | paclitaxel degraded ([1]; aqueous cosolvent solution, in less than one week at 37° C.): > 50% | increase in solubility of paclitaxel (physchem): ~3000 fold | solubility (physchem; aqueous with cosolvent or surfactant or cyclodextrin, thermodynamic from solid): ≤ 12 mg/mL
SMILES: CC(=O)O[C@H]1C(=O)[C@@]2(C)[C@H]([C@H](OC(=O)c3ccccc3)[C@]3(O)C[C@H](OC(=O)[C@H](O)[C@@H](NC(=O)c4ccccc4)c4ccccc4)C(C)=C1C3(C)C)[C@]1(OC(C)=O)CO[C@@H]1C[C@@H]2O [paclitaxel]
solubility in water [2]: approximately 4 μg/ml
